“Also recorded” adds a separate entry of the source. Values belong to the molecule of their own block, whether it stands above or below them.
Columns and labels:
throat = assay: Additional cooling evaluation, targeted throat cooling; assay type: in vivo; settings: Yes/No
Text: (§1) Cooling sensate samples were requested from various flavor suppliers and were included into the formulation at a level recommended by the manufacturer and evaluated by various individuals in terms of cooling efficiency/intensity, area within the oral cavity where cooling could be felt, cooling onset time, and duration of cooling. It was interesting to see that all the sensate provided different degree of cooling and the area within the oral cavity where cooling could be felt was different.

oral cavity = assay: Taste-test evaluation of cooling sensates in base cough-cold liquid; assay type: in vivo; settings: for Cooling site: area within the oral cavity where cooling could be felt; for Cooling Intensity: sensate in base cough-cold liquid at the listed addition level
Protocol: Various polymeric additives were combined into a base cough-cold liquid formula to determine interaction, and included various grades of Avicel®, CMC, HPMC among others. A synergistic effect was observed when Poloxamer was also included in the formulation containing above mentioned rheology modifier and a cooling flavor. A cooling sensation in the back of the throat could be felt, and the sensation lasted longer (approximately 5-10 min or even longer in some instances). […] The presence of just the viscosity modifiers and no Poloxamer, the same flavor did provide targeted cooling, but the extent and duration was less.
as §1
Mixing Procedure: The following procedure was used to mix the materials in Table 3. The formulation was prepared by adding purified water to a suitable vessel. The Avicel RC591 was then added while mixing using a high shear mixer until dissolved, followed by addition of propylene glycol while mixing using a propeller mixer at about 500-1000 RPM. The rest of the ingredients were added and mixed at approximately 50-100 RPM for at least 30 minutes. After complete dissolution, the solution was heated using a water bath to a temperature between […] for 15 minutes while continuously stirring. The solution was cooled to room temperature before adding propylene glycol while mixing. The rest of the ingredients were added and mixed for at least 30 minutes.

[1] = solvents named; cited from earlier work
[2] = Solution conductivity measurement; assay type: physicochemical
Protocol: Conductivity of solutions containing Poloxamer-188 and Cooler #2 in purified water at different concentrations was measured using a MultiLab 4010-2 conductivity meter with an IDS 4320 Conductivity and Temperature Sensor.
It is important to note that the solutions turned cloudy once Cooler #2 was added to the solution, indicating formation of an emulsion. The turbidity of the solutions was not very different as the level of Cooler #2 was increased.
Conductivity of the Water-PG solutions containing 0.35% CMC and 0.35% HPMC was also measured in water and in combination with Cooler #2 and Poloxamer. The conductivity results are summarized below in Table 5.

SMILES: COc1ccc(NC(=O)[C@@H]2C[C@H](C)CC[C@H]2C(C)C)cc1 [WS 12, (1R,2S,5R)-N-(4-methoxyphenyl)-5-methyl-2-(1-methylethyl) cyclohexanecarboxamide]
- Targeted Throat Cooling (throat): No
- Duration (oral cavity; Table 3): 5 to 7 min
- Overall (oral cavity; Table 3): Mild cooling
- Onset time (oral cavity; Table 3, values in min): 60 to 120 s
- Cooling site (oral cavity): mostly tongue and some in upper throat
- Overall (oral cavity; overall taste evaluation): Mild cooling noticeable on tongue and some back of the throat
- Cooling Intensity (oral cavity): Mild Cooling

- Conductivity ([2]; 0.05% of Cooler #2, 0.4% Poloxamer, Water-5% propylene glycol, about 7.4 without cooler): about 35 μS/cm
SMILES: CC(C)[C@@H]1CC[C@@H](C)C[C@H]1OC(=O)CCCC(=O)O (stereo in doubt) [Cooler #2, Monomenthyl Glutarate]
- Targeted Throat Cooling (throat): Yes
- Solubility [1]: Ethanol and Propylene Glycol, insoluble in Water
- Effect on conductivity of the solution ([2]; purified water, Poloxamer-188 0.2% to 2.0%, 0.15% of Cooler #2): significant effect on the conductivity of the solution at lower concentrations of Poloxamer-188
- Synergistic sensate effect (oral cavity): Did work, providing synergistic sensate effect
- Cooling site (oral cavity): all the cooling was in the back of the throat
- Cooling site (oral cavity; listed as IFF cooler #2): Throat
- Duration (oral cavity; duration of cooling): 7 to 9 min
- Overall (oral cavity; overall taste evaluation): Cooling concentrated towards the back of the throat, intensity grows with time and duration longer than others
- Cooling Intensity (oral cavity): Mild to medium cooling
- Onset time (oral cavity; values in secs): ~30 s

SMILES: CC(O)C(=O)O[C@@H]1C[C@H](C)CC[C@H]1C(C)C (stereo partly shown) [Symcool NAT, Menthyl Lactate]
- Targeted Throat Cooling (throat): Yes
- Solubility [1]: Propylene glycol, ethanol
- Synergistic sensate effect (oral cavity): Did work, providing synergistic sensate effect
- Duration (oral cavity; Table 3): 5 to 6 min
- Overall (oral cavity; Table 3): Medium
- Onset time (oral cavity; Table 3, values in secs): ~10 s
- Cooling site (oral cavity): cooling in mouth, tongue along with some cooling in the back of the throat; also recorded: Tongue and some throat cooling
- Onset time (oral cavity; in words): immediate
- Overall (oral cavity; overall taste evaluation): Liquorish taste and cooling in the mouth and towards the back of the throat, cooling in throat as you breath in, intensity grows with time
- Cooling Intensity (oral cavity): medium cooling

SMILES: CNC(=O)C(C)(C(C)C)C(C)C [WS 23, 2-isopropyl-N,2,3-trimethylbutyramide]
- Targeted Throat Cooling (throat): No
- Duration (oral cavity; Table 3): 3 to 4 min
- Overall (oral cavity; Table 3): Mild cooling
- Onset time (oral cavity; Table 3, values in secs): ~10 s
- Cooling site (oral cavity): tongue and front of the mouth
- Overall (oral cavity; overall taste evaluation): Mild cooling noticeable on tongue, and front of the mouth, tingling and nose cooling as you breath out
- Cooling Intensity (oral cavity): Mild Cooling, less than WS-3 and WS-5
- Onset time (oral cavity; values in secs): ~10 s

SMILES: CCOC(=O)CNC(=O)[C@@H]1C[C@H](C)CC[C@H]1C(C)C [WS-5, N-[(ethoxycarbonyl)methyl)-p-menthane-3-carboxamide]
- Targeted Throat Cooling (throat): Yes
- Solubility [1]: Propylene Glycol, ethanol, insoluble in water
- Synergistic sensate effect (oral cavity): Did work, providing synergistic sensate effect
- Duration (oral cavity; Table 3): 6 to 7 min
- Overall (oral cavity; Table 3): Intense cooling
- Onset time (oral cavity; Table 3, values in secs): ~10 s
- Cooling site (oral cavity): cooling in mouth, tongue along with some cooling in the back of the throat
- Cooling site (oral cavity; listed as Symcool WS-5): towards the back on mouth, upper throat, and tongue
- Duration (oral cavity; duration of cooling): 6 to 7 min
- Overall (oral cavity; overall taste evaluation): Intense cooling noticeable all around the oral cavity, tongue, and upper throat
- Cooling Intensity (oral cavity): Intense Cooling
- Onset time (oral cavity; values in secs): ~10 s

SMILES: CCNC(=O)[C@@H]1C[C@H](C)CC[C@H]1C(C)C [WS-3, N-ethyl 2-isopropyl-5-methylcyclohexanecarboxamide]
- Targeted Throat Cooling (throat): Yes
- Solubility [1]: Propylene Glycol, ethanol, insoluble in water
- Synergistic sensate effect (oral cavity): Did work, providing synergistic sensate effect
- Duration (oral cavity; Table 3): 4 to 5 min
- Overall (oral cavity; Table 3): Intense
- Onset time (oral cavity; Table 3, values in secs): ~10 s
- Cooling site (oral cavity): cooling in mouth, tongue along with some cooling in the back of the throat
- Cooling site (oral cavity; listed as Symcool®WS-3): towards the back on mouth, upper throat, and tongue
- Overall (oral cavity; overall taste evaluation): Intense cooling noticeable all around, tongue, and upper throat, sweeter sensation like menthol
- Cooling Intensity (oral cavity): Intense Cooling, more intense than WS-5
- Onset time (oral cavity; values in secs): ~10 s

SMILES: CC(C)[C@@H]1CC[C@@H](C)C[C@H]1O [Menthol, (1R,2S,5R)-2-isopropyl-5-methylcyclohexanol, reference compound]
- Targeted Throat Cooling (throat): No
- Duration (oral cavity; Table 3): 5 to 6 min
- Overall (oral cavity; Table 3): Cooling
- Onset time (oral cavity; Table 3, values in secs): ~10 s
- Cooling site (oral cavity): Throat and some in oral cavity tongue and front of the mouth
- Onset time (oral cavity; in words): Immediate
- Overall (oral cavity; overall taste evaluation): Cooling noticeable on tongue and front of the mouth and throat
- Cooling Intensity (oral cavity): Intense cooling
